The experiment deals with HLA-A*02:01 (Homo sapiens, UniProt P04439, D140Y/D185E/D98H/E176V/E277Q/G131W/G231S/I119V/I121R/I166T/I218V/L300P/L318F/N151K/N90K/P208A/P217A/Q86G/Q94H/R138H/R169H/T345S). Kind of experiment: HLA-peptide competition binding assay, A*02:01.
[1] abbreviates: unmodified (wild type) insulin-derived peptide, radiolabeled ligand competition, purified MHC, two-day incubation, three or more independent experiments, read-out: A*02:01 binding, WT.
The mark [2] stands for this setting: unmodified (WT) insulin peptide, competition binding assay, a dash indicates IC50 >40,000 nM, read-out: A*02:01 binding (IC50 nM) WT.
[3] abbreviates: post-translationally modified insulin peptide, competition binding assay, a dash indicates IC50 >40,000 nM, read-out: A*02:01 binding (IC50 nM) Modified.
[4] abbreviates: read-out: IC50 nM, target assay A*02:01.
[5] abbreviates: read-out: A*02:01 binding (IC50 nM) WT.
[6] abbreviates: read-out: A*02:01 binding (IC50 nM) Modified, post-translationally modified insulin peptide, competition binding assay, a dash indicates IC50 >40,000 nM.
The mark [7] stands for this setting: read-out: A*02:01 binding (IC50 nM) Modified.

Where two headings read alike, the source gives them in different places. *1 amine or outer side, *2 acyl side, *3 side chain or, on linkers, in order; H or OH if unused. Where a SMILES comes first, the peptide text is derived from it. Where no end group is shown, it is not given here. [ ]: non-standard residue; d: D form. γGlu = O=C(O)[C@H](CCC(=O)[*:2])N[*:1]; βAsp = O=C(O)[C@H](CC(=O)[*:2])N[*:1]; Cya = N[C@@H](CS(=O)(=O)O)C(=O)O; Cit = NC(=O)NCCC[C@H](N)C(=O)O

On to `CSCC[C@H](NC(=O)[C@H](Cc1c[nH]c2ccccc12)NC(=O)[C@H](CC(C)C)NC(=O)[C@H](C)NC(=O)[C@@H](N)CCSC)C(=O)N[C@@H](CCCNC(N)=O)C(=O)N[C@@H](CC(C)C)C(=O)N[C@@H](CC(C)C)C(=O)N1CCC[C@H]1C(=O)N[C@@H](CC(C)C)C(=O)O` (H-MALWM[Cit]LLPL-OH), for which the IC50 turned out to be 262 nM. In the case of `CC(C)C[C@H](NC(=O)[C@H](C)N)C(=O)N[C@@H](Cc1ccc(O)cc1)C(=O)N[C@@H](CC(C)C)C(=O)N[C@H](C(=O)N[C@@H](CS)C(=O)NCC(=O)N[C@@H](CCC(=O)O)C(=O)N[C@@H](CCCNC(=N)N)C(=O)NCC(=O)O)C(C)C`, the IC50 under setting [1] is 8780 nM.

On to `C[C@@H](O)[C@H](NC(=O)[C@H](Cc1ccc(O)cc1)NC(=O)[C@H](Cc1ccccc1)NC(=O)[C@H](Cc1ccccc1)NC(=O)CNC(=O)[C@H](CCCNC(=N)N)NC(=O)[C@H](CCC(=O)O)NC(=O)CN)C(=O)N1CCC[C@H]1C(=O)N[C@@H](CCCCN)C(=O)O`, for which the IC50 under setting [2] is over 40000 nM. Consider `CC(C)C[C@H](NC(=O)[C@H](C)N)C(=O)N[C@@H](CCC(=O)O)C(=O)NCC(=O)N[C@@H](CO)C(=O)N[C@@H](CC(C)C)C(=O)N[C@@H](CCC(N)=O)C(=O)N[C@@H](CCCCN)C(=O)N[C@@H](CCCNC(N)=O)C(=O)NCC(=O)O` (H-ALEGSLQK[Cit]G-OH; N-terminus and C-terminus assumed), for which, under setting [3], the IC50 is over 40000 nM. As for “LCGSHLVEAL [LCGSHLVEAL, reference compound]”, the IC50 under setting [4] is over 40000 nM and the IC50 under setting [2] is over 40000 nM. In the case of MRLLPLLAL [MRLLPLLAL], under setting [5], the IC50 is 228 nM.

Take `C[C@@H](O)[C@H](NC(=O)[C@H](Cc1ccc(O)cc1)NC(=O)[C@H](Cc1ccc(O)cc1)NC(=O)[C@H](Cc1ccc(O)cc1)NC(=O)CNC(=O)[C@H](CCCNC(=N)N)NC(=O)[C@H](CCC(=O)O)NC(=O)CNC(=O)[C@@H](N)CS(=O)(=O)O)C(=O)N1CCC[C@H]1C(=O)O` [BGERGYYYTP] (H-[Cya]GERGYYYTP-OH; N-terminus and C-terminus assumed): the IC50 under setting [6] was over 40000 nM.

As for SLQKRGIVEQ [reference compound], the IC50 under setting [4] is over 40000 nM. LVEALYLVC came in with an IC50 of 11800 nM. As to EGSLQKRGIV, the IC50 under setting [2] is over 40000 nM. As for `CC(C)C[C@H](NC(=O)[C@H](Cc1c[nH]cn1)NC(=O)CC[C@H](NC(=O)C[C@H](NC(=O)[C@@H](NC(=O)[C@@H](N)Cc1ccccc1)C(C)C)C(=O)O)C(=O)O)C(=O)N[C@@H](CS)C(=O)NCC(=O)N[C@@H](CO)C(=O)O` [FVOZHLCGS] (H-FV[βAsp][γGlu]HLCGS-OH; N-terminus and C-terminus assumed), the IC50 under setting [3] is over 40000 nM. Consider SLASLLPHV [reference compound], for which the IC50 under setting [4] turned out to be 9.1 nM. On the same count and under the same terms, with ALTAVAEEV [reference compound] the figure was 1310 nM.

`CC(C)C[C@H](NC(=O)[C@H](Cc1c[nH]cn1)NC(=O)[C@H](CO)NC(=O)CNC(=O)[C@H](CS(=O)(=O)O)NC(=O)[C@H](CC(C)C)NC(=O)[C@@H](N)Cc1c[nH]cn1)C(=O)N[C@H](C(=O)N[C@@H](CCC(=O)O)C(=O)N[C@@H](C)C(=O)O)C(C)C` [HLBGSHLVEA] (H-HL[Cya]GSHLVEA-OH) returned an IC50 of 6210 nM. VLHELFGMDI [reference compound]: the IC50 under setting [4] was 287 nM. In the case of GERGYFYTPK, the IC50 under setting [3] is over 40000 nM.

Molecule LMGDKSENV [reference compound] came in with an IC50 of 7370 nM. On to SMPQGTFPV [reference compound], for which the IC50 under setting [4] was determined as 631 nM. Same read-out and setting: with “FLIVLSVAL [FLIVLSVAL, reference compound]” the figure was 26 nM; with LLPPLLEHL [reference compound], 444 nM. In turn, VAANIVLTV [reference compound] showed an IC50 of 320 nM. Regarding KVLHELFGMDI [reference compound], the IC50 under setting [4] is 11 nM. As to `CC(C)C[C@H](NC(=O)[C@H](CC(=O)O)NC(=O)[C@H](CCC(=O)O)NC(=O)[C@H](C)NC(=O)[C@H](CCC(=O)O)NC(=O)[C@H](CCCNC(N)=O)NC(=O)[C@@H](N)CCCNC(N)=O)C(=O)N[C@@H](CCC(N)=O)C(=O)N[C@H](C(=O)O)C(C)C` (H-[Cit][Cit]EAEDLQV-OH; N-terminus and C-terminus assumed), under setting [3], the IC50 was over 40000 nM. As for `CSCC[C@H](N)C(=O)N[C@@H](CCCNC(N)=O)C(=O)N[C@@H](CC(C)C)C(=O)N[C@@H](CC(C)C)C(=O)N1CCC[C@H]1C(=O)N[C@@H](CC(C)C)C(=O)N[C@@H](CC(C)C)C(=O)N[C@@H](C)C(=O)N[C@@H](CC(C)C)C(=O)O` [MULLPLLAL] (H-M[Cit]LLPLLAL-OH), the IC50 under setting [7] amounted to 1860 nM. With SHLVEALYLV [reference compound], the IC50 was determined as 2150 nM.

`CC[C@H](C)[C@H](NC(=O)[C@H](CC(N)=O)NC(=O)[C@H](C)NC(=O)[C@H](CC(C)C)NC(=O)[C@@H](N)CCCCN)C(=O)N[C@@H](CCC(N)=O)C(=O)N[C@@H](CS)C(=O)N1CCC[C@H]1C(=O)N[C@@H](CS)C(=O)N[C@@H](CC(C)C)C(=O)O` [reference compound] (H-KLANIQCPCL-OH): the IC50 under setting [4] came out at 121 nM. Take LALEGSLQKR: the IC50 under setting [1] was over 40000 nM. Consider `C[C@@H](O)[C@H](NC(=O)[C@H](CCCCN)NC(=O)[C@@H]1CCCN1C(=O)[C@@H](NC(=O)[C@H](Cc1ccc(O)cc1)NC(=O)[C@H](Cc1ccccc1)NC(=O)[C@H](Cc1ccccc1)NC(=O)CNC(=O)[C@@H](N)CCCNC(=N)N)[C@@H](C)O)C(=O)O`, for which the IC50 reads like this: under setting [2], over 40000 nM; under setting [1], over 40000 nM.

Take MALWMRLLP: the IC50 under setting [1] was determined as 4540 nM. Regarding LVCGERGFF, under setting [2], the IC50 is over 40000 nM.

As for `CC(C)C[C@H](N)C(=O)N[C@H](C(=O)N[C@@H](CS(=O)(=O)O)C(=O)NCC(=O)N[C@@H](CCC(=O)O)C(=O)N[C@@H](CCCNC(=N)N)C(=O)NCC(=O)N[C@@H](Cc1ccc(O)cc1)C(=O)N[C@@H](Cc1ccc(O)cc1)C(=O)O)C(C)C` [LVBGERGYY] (H-LV[Cya]GERGYY-OH; N-terminus and C-terminus assumed), the IC50 under setting [3] is over 40000 nM. Consider GERGYYYTPK, for which the IC50 under setting [3] is over 40000 nM. On the same count and under the same terms, with LVCGERGYF the figure was over 40000 nM.

On to GERGYYYTP, for which, under setting [6], the IC50 was over 40000 nM. For `CC(C)C[C@H](NC(=O)[C@H](Cc1c[nH]cn1)NC(=O)[C@H](CCC(N)=O)NC(=O)[C@H](CC(N)=O)NC(=O)[C@@H](N)C(C)C)C(=O)N[C@@H](CS(=O)(=O)O)C(=O)NCC(=O)N[C@@H](CO)C(=O)N[C@@H](Cc1c[nH]cn1)C(=O)O` [VNQHLBGSH] (H-VNQHL[Cya]GSH-OH; N-terminus and C-terminus assumed), under setting [3], the IC50 is over 40000 nM. Take CGERGYFYT: under setting [7], the IC50 amounted to 26300 nM.

ILKDFSILL [reference compound]: under setting [4], the IC50 amounted to 39 nM. NQHLCGSHLV: the IC50 under setting [5] came to 7990 nM.

LLSLFSLWL [reference compound] displayed an IC50 of 152 nM.

In the case of VCGERGFFY, the IC50 under setting [2] is over 40000 nM. Take LYLVCGERG: the IC50 under setting [1] worked out at 28000 nM. Take GERGYFYTP: under setting [3], the IC50 was over 40000 nM. With QKRGIVEQC, the IC50 under setting [2] is over 40000 nM. Take FLFAVGFYL [reference compound]: the IC50 under setting [4] was determined as 1.1 nM.

Take TVASRLGPV [reference compound]: the IC50 under setting [4] is 7700 nM.

On to FLQDVMNIL [reference compound], for which the IC50 under setting [4] worked out at 70 nM. With CGERGYFYTP, the IC50 under setting [3] was over 40000 nM. Turning to CGSHLVEALY, the IC50 under setting [1] is 33700 nM.

Source of the values: article PMC5863483, “Low HLA binding of diabetes-associated CD8+ T-cell epitopes is increased by post translational modifications” (BMC Immunology, 2018).
